# Reference: BindingDB's records for PubMed 9536007 (University of Bonn, 1998)
# Several values for one entry are separate records, joined by “and”; a condition that tells them apart may be missing. Equal entries are not always repeated. Structures can show the parent of a compound that is named as a salt.
# Target: Nischarin (Rattus norvegicus, UniProt Q4G017)
# Sequence (Q4G017 whole entry): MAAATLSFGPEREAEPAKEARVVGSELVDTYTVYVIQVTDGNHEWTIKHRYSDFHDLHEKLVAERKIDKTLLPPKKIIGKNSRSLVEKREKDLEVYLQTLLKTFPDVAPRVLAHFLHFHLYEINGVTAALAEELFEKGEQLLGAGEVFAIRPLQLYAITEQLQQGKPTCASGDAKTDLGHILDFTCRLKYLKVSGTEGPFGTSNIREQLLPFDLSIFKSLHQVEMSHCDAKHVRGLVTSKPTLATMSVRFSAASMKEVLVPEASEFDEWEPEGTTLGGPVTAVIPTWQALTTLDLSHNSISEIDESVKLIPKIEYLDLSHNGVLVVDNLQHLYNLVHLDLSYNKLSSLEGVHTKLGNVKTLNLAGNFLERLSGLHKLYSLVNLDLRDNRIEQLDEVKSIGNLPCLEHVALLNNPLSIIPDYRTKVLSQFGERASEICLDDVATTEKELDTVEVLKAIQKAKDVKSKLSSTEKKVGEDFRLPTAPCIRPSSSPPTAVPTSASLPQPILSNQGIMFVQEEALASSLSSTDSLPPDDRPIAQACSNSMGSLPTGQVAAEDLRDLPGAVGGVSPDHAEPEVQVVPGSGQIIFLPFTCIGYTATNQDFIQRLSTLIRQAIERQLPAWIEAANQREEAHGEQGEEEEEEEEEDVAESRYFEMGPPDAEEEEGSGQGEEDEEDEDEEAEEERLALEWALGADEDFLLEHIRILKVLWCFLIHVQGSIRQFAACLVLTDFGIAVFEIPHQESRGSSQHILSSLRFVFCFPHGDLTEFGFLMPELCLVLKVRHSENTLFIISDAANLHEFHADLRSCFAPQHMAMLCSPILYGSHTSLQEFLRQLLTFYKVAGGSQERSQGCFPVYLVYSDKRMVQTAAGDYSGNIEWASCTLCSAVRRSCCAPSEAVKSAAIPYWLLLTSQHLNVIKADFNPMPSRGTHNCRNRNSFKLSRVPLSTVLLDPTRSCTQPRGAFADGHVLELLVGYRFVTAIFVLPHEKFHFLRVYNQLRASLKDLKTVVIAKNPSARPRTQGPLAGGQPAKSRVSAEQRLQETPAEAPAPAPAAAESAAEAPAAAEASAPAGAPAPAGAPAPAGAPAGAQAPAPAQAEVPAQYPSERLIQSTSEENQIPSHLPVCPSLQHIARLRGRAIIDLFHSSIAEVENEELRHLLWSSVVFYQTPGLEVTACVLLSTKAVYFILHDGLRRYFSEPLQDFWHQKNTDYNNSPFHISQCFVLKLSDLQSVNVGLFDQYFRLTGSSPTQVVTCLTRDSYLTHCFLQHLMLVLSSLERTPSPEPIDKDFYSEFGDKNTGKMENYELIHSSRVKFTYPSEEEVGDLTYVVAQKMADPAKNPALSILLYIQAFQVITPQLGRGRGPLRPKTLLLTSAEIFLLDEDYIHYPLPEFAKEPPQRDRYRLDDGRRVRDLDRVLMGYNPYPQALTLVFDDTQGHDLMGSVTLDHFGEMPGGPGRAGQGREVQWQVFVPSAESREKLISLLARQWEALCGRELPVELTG
row,Compound,Ki
1,CC(C)=CCN1CC[C@@]2(C)c3cc(O)ccc3C[C@@H]1[C@@H]2C [Talwin],> 10 µM
2,Cc1ccccc1NC(=N)Nc1ccccc1C [CAS_97-39-2],0.93 µM
3,O=C(CCCN1CCC(O)(c2ccc(Cl)cc2)CC1)c1ccc(F)cc1 [4-[4-(4-Chloro-phenyl)-4-hydroxy-piperidin-1-yl]-1-(4-fluoro-phenyl)-butan-1-one;propionate(HCl)],0.5 µM
4,COC(=O)[C@@H]1[C@H]2C[C@H]3c4[nH]c5ccccc5c4CCN3C[C@@H]2CC[C@@H]1O [yohimbic acid methyl ester],> 10 µM
5,NCCc1c[nH]cn1 [[3H]histamine],> 10 µM
6,N=C(N)NCCCCN,> 10 µM
7,COc1nc(C)nc(Cl)c1N=C1NCCN1 [(4-Chloro-6-methoxy-2-methyl-pyrimidin-5-yl)-imidazolidin-2-ylidene-amine],> 10 µM
8,"Clc1cccc(Cl)c1N=C1NCCN1 [2-(2,6-dichloroanilino)-2-imidazoline]",2.52 µM and > 10 µM
9,"C[C@]12NC(Cc3ccccc31)c1ccccc12 [(5S,10S)-(+)-5-methyl-10,11-dihydro-5Hdibenzo[a,d]cyclohepten-5,10-imine]",> 10 µM
10,CN/C([CH-][N+](=O)[O-])=[NH+]\CCSCc1ccc(CN(C)C)o1,> 10 µM
11,CCCN1CCC[C@@H](c2cccc(O)c2)C1 [Preclamol],> 10 µM
